The values that follow come from PMC11091889, “Silver Organometallics that are Highly Potent Thioredoxin and Glutathione Reductase Inhibitors: Exploring the Correlations of Solution Chemistry with the Strong Antibacterial Effects” (ACS Infectious Diseases, 2024).

Data set [1] in a line: Conductometry: molar conductivity of silver complexes in DMSO. The format is physicochemical. The conditions noted are these: 1.0 mM in DMSO, calculated as monocarbene (NHC)AgX. An outline of the steps:
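Molar conductivity of each silver complex was measured at 1.0 mM in freshly distilled DMSO (specific conductivity ≤3 × 10^–8 S cm^–1) using an Apera Instruments EC9500 conductivity meter at 25 ± 2 °C. AgNO3 served as the 1:1 electrolyte reference, and readings were taken after dissolution to distinguish neutral monocarbene from ionic biscarbene forms.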

In data set [2] the test system is E. coli (DSM1116, ATCC 9637). Nature of the data set: microbe, parasite or virus in culture. It counts as cell-based, Escherichia coli. To be noted: for EC50 / MIC E. coli: mean ± standard error; for EC50 / MIC E. coli / MIC E. coli (value in brackets): n = 3, MHB; for MIC E. coli / MIC E. coli (value in brackets): 22 h. The method, boiled down:
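Escherichia coli DSM1116 (ATCC 9637) was tested by broth microdilution in 96-well plates in duplicate, with compounds serially diluted from 64 to 1 μg/mL. Inocula of 2–8 × 10^5 CFU/mL were used in MHB (21 g/L Müller Hinton broth, pH 7.4), either alone or supplemented with tryptone (17 g/L) or yeast extract (3 g/L). After 22 h at 37 °C, absorbance at 600 nm was read. MIC and EC50 were obtained by curve fitting in Sigma Plot from three independent experiments, and ciprofloxacin served as the positive control.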

Data set [3] relates to P. aeruginosa PA7 (DSM 24068). Nature of the data set: microbe, parasite or virus in culture. The format is cell-based, Pseudomonas aeruginosa. To be noted: n = 3, MHB; for MIC P. aeruginosa / EC50: mean ± standard error; for MIC P. aeruginosa / MIC P. aeruginosa (value in brackets): 22 h; for EC50: read-out: EC50 P. aeruginosa. An outline of the steps: (§1)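 Broth microdilution used 2–8 × 10^5 CFU/mL inocula, with compounds serially diluted 64 to 1 μg/mL and incubated 22 h at 37 °C, read at 600 nm. A. baumannii, K. pneumoniae and P. aeruginosa were grown in MHB pH 7.4; E. faecium was grown in TSY pH 7.0–7.2. MIC and EC50 were obtained by curve fitting from three independent experiments.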

For data set [4], the system named is K. pneumoniae (DSM 11678, ATCC33495). The data set can be described thus: Broth microdilution antibacterial assay. It counts as cell-based, Klebsiella pneumoniae. To be noted: n = 3, MHB; for MIC K. pneumoniae / EC50: mean ± standard error; for MIC K. pneumoniae / MIC K. pneumoniae (value in brackets): 22 h; for EC50: read-out: EC50 K. pneumoniae. An outline of the steps:
as §1

The subject of data set [5] is A. baumannii (DSM 30007, ATCC 19606). The data set can be described thus: Broth microdilution antibacterial assay. The format is cell-based, Acinetobacter baumannii. The conditions noted are these: n = 3, MHB; for MIC A. baumannii / EC50: mean ± standard error; for MIC A. baumannii / MIC A. baumannii (value in brackets): 22 h; for EC50: read-out: EC50 A. baumannii. An outline of the steps: as §1

In data set [6] the test system is S. aureus MRSA (DSM 11822, ICB 25701). Nature of the data set: microbe, parasite or virus in culture. The format is cell-based, methicillin resistant S. aureus. To be noted: n = 3, TSY; for MIC MRSA / EC50: mean ± standard error; for MIC MRSA / MIC MRSA (value in brackets): 22 h; for EC50: read-out: EC50 MRSA. An outline of the steps:
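Broth microdilution in TSY (30 g/L trypticase soy broth, 3 g/L yeast extract, pH 7.0–7.2), inoculum 2–8 × 10^5 CFU/mL, compounds serially diluted 64 to 1 μg/mL, 22 h at 37 °C. Growth read as absorbance at 600 nm; MIC and EC50 obtained by curve fitting, three independent experiments.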

The test system of data set [7] is E. faecium (DSM 20477, ATCC 19434). The data set can be described thus: Broth microdilution antibacterial assay. It counts as cell-based, Enterococcus faecium. To be noted: n = 3, TSY; for MIC E. faecium / EC50: mean ± standard error; for MIC E. faecium / MIC E. faecium (value in brackets): 22 h; for EC50: read-out: EC50 E. faecium. An outline of the steps: as §1

Data set [8] deals with T1, glutathione reductase (GR) from baker's yeast (Saccharomyces cerevisiae, UniProt P41921).
T1 construct: purchased Sigma-Aldrich
T1 sequence (P41921 17-483 limits assumed): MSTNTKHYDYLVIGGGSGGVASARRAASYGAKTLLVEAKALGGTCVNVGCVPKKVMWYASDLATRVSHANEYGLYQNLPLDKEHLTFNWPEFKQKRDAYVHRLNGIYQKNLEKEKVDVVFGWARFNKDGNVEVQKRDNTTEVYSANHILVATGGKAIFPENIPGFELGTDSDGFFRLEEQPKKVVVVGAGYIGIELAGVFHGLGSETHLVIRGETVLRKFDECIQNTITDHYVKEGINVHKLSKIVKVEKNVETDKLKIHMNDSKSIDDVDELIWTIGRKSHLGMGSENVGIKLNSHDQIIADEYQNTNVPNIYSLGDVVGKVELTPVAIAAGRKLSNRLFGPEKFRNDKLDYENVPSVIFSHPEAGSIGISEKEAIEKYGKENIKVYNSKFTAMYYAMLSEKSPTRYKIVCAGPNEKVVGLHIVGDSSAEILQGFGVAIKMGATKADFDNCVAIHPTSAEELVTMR
The data set can be described thus: GR inhibition assay (DTNB reduction). The conditions noted are these: ± standard deviation, n = 3, 75 min preincubation. The format is biochemical.
Procedure: (§2) The inhibition of purified E. coli thioredoxin reductase (TrxR) and glutathione reductase (GR) from both E. coli and baker’s yeast was determined according to a previously applied procedure.[59],[60]
(§3) The TrxR (E. coli) and GR (baker’s yeast and E. coli) inhibition assays were performed according to previously published procedures.[62],[75] The assays are partly based on the procedure developed by Lu et al.[60] and make use of the reduction of 5,5′-dithiobis(2-nitrobenzoic acid) (DTNB). Solutions of E. coli TrxR (35.4 U/mL) and E. coli thioredoxin (Trx) (156 μg/mL) (both purchased from Sigma-Aldrich) or baker’s yeast GR (0,08 U/mL, Sigma-Aldrich) or E. coli GR (4.2 U/ml, Antibodies online) and GSSG (0.28 mM, Sigma-Aldrich) in distilled water were prepared, as were fresh 2 mM stock solutions of the test compounds in DMSO. Then, solutions with several concentrations of the test compounds in DMSO were prepared, and 35 μL of each solution was diluted with 965 μL of TE buffer (Tris–HCl 50 mM, EDTA 1 mM, pH 7.5). These solutions (20 μL) or TE buffer without the test compounds (20 μL, as control) were mixed with the TrxR or GR solutions (10 μL), the Trx or GSSG solutions (10 μL), and a solution of NADPH (200 μM) in TE buffer (100 μL) in a well on a 96-well plate. As a blank solution, 200 μM NADPH in TE buffer (100 μL) mixed with a DMSO/buffer mixture (40 μL) was used (final concentrations of DMSO: 0.5% v/v). The plate was incubated for 75 min at 25 °C with moderate shaking. After incubation, 100 μL of a reaction mixture (TE buffer containing 200 μM NADPH and 5 mM DTNB) was added to each well to initiate the reaction. After thorough mixing, the formation of 5-TNB was monitored by a microplate reader at 405 nm in 35 s intervals (10 measurements). The values were corrected by subtraction of the blank solution absorption values. The increase in the concentration of 5-TNB followed a linear trend (r^2 ≥ 0.990), and the enzymatic activities were calculated as the gradients (increase in absorbance per second) thereof. […] The inhibition is presented as the mean IC50 values and standard deviations obtained in three independent experiments.

Data set [9] deals with T2, glutathione reductase (GR) from E. coli (Escherichia coli, UniProt P06715).
T2 construct: purchased Antibodies online
T2 sequence (P06715 1-450): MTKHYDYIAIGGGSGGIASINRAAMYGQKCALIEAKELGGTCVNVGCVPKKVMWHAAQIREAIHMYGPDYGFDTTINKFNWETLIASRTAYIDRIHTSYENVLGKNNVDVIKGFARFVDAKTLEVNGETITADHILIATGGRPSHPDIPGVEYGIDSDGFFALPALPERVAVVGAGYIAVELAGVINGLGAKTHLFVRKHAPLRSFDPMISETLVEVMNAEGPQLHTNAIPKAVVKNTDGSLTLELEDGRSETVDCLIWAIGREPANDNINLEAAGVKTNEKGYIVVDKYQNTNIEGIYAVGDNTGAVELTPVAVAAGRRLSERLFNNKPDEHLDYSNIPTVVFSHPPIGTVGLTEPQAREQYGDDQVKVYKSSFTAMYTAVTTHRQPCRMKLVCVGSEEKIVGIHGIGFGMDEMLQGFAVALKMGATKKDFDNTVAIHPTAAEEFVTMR
Nature of the data set: GR inhibition assay (DTNB reduction). The format is biochemical. The conditions noted are these: ± standard deviation, n = 3, 75 min preincubation.
Procedure: as §2, §3

Data set [10] addresses E. coli thioredoxin reductase (TrxR) (Escherichia coli, UniProt P0A9P4). The conditions noted are these: read-out: IC50 TrxR from E. coli; ± standard deviation, n = 3, 75 min preincubation.
Procedure: as §2, §3
Another data set concerns Caco-2 cells. To be noted: read-out: Cytotoxicity IC50 Caco-2; 24 h, almost confluent cell layers, highest concentration 100 μM. How it is done: Besides the antimicrobial effects, the toxic effects of silver ions have to be considered.[10],[12] As a primary evaluation of the cell toxicity triggered by silver NHC complexes, almost confluent cell layers of CaCo-2 cells were grown and challenged for 24 h with the silver complexes and also with the silver reference compounds AgNO3 and SSD (see Figure 6).
Caco-2 cells were grown as almost confluent monolayers in 96-well plates. The complexes were dissolved in wells of 96-well plates as stock solutions in DMSO (0.2% v/v) diluted with DMEM cell culture medium, which was supplemented with 10% fetal calf serum and 50 mg/L gentamicin. The cell layers were incubated with the drug containing media for 24 h at 37 °C/5% CO2 in an incubator. The cell viability was determined using crystal violet (0.02%) staining and was calculated as percentage of an untreated control. Results were obtained in three independent experiments.

Sequence of E. coli thioredoxin reductase (TrxR) (P0A9P4 whole entry): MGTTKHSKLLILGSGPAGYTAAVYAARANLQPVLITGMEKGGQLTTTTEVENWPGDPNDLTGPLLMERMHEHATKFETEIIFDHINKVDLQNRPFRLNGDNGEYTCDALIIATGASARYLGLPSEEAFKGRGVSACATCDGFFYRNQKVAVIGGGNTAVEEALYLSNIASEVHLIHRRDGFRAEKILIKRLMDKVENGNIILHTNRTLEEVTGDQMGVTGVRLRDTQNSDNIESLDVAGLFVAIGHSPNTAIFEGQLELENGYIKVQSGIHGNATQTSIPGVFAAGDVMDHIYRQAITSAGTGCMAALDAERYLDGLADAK

For `O=[N+]([O-])[O-].[Ag+]` [AgNO3, Silver nitrate, reference compound], the “Molar conductivity ΛM” value in data set [1] (1 h after dissolution) was 37.8 S cm^2 mol^–^1. Moreover, the “Molar conductivity ΛM” value in data set [1] (24 h after dissolution) is 38.1 S cm^2 mol^–^1. In data set [2] (Müller-Hinton Broth with tryptone (17 g/L), ± SE), the “MIC E. coli DSM 1116 in MHB + tryptone” value came out at 251.1 ± 62.8 µM. In addition, in data set [2] (Müller-Hinton Broth with yeast extract (3 g/L), ± SE), the “MIC E. coli DSM 1116 in MHB + yeast extract” value came to 123.6 ± 29.4 µM. For the same molecule, the “MIC E. coli DSM 1116 in MHB” value in data set [2] (Müller-Hinton Broth without additive, ± SE) worked out at 5.89 ± 0.0 µM. For the same molecule, in data set [2], the EC50 amounted to 4.87 ± 0.1 µM, the “MIC E. coli” value was found to be 5.9 ± 0.0 µM and the “MIC E. coli (value in brackets)” value was found to be 1 µg/mL. In [3], the “MIC P. aeruginosa” value is 5.9 ± 0.0 µM, the EC50 turned out to be 4.12 ± 0.4 µM and the “MIC P. aeruginosa (value in brackets)” value came to 1 µg/mL. In data set [4], the “MIC K. pneumoniae” value amounted to 5.9 ± 0.0 µM, the 50% effective concentration (EC50) was 4.41 ± 0.5 µM and the “MIC K. pneumoniae (value in brackets)” value amounted to 1 µg/mL. In data set [5], the “MIC A. baumannii” value worked out at 5.9 ± 0.0 µM, the EC50 was found to be 4.16 ± 0.4 µM and the “MIC A. baumannii (value in brackets)” value worked out at 1 µg/mL. For the same molecule, in data set [6], the “MIC MRSA” value was 188 ± 0.0 µM, the EC50 was determined as 98.9 ± 6.4 µM and the “MIC MRSA (value in brackets)” value worked out at 32 µg/mL. Also, in data set [7], the “MIC E. faecium” value stood at 94.1 ± 0.0 µM, the EC50 worked out at 75.9 ± 5.7 µM and the “MIC E. faecium (value in brackets)” value worked out at 16 µg/mL. For the same molecule, half-maximal inhibition in data set [8] (IC50) was put at 0.033 ± 0.003 µM. Inhibition in [9] was half-maximal at 0.031 ± 0.001 µM (IC50). Besides, the IC50 in data set [10] amounted to 0.054 ± 0.005 µM.
On to `Cn1[c](=[Ag][I])n(Cc2ccccn2)c2ccccc21` [1c, Iodido (1-Methyl-3-(pyridin-2-ylmethyl)-benzimidazol-2-ylidene) Silver(I)], for which the “Molar conductivity ΛM” value in data set [1] (1 h after dissolution) is 7.82 S cm^2 mol^–^1. Further, the “Molar conductivity ΛM” value in [1] (24 h after dissolution) is 8.13 S cm^2 mol^–^1. In [2], the concentration giving a half-maximal response (EC50) was 6.4 ± 1.1 µM, the “MIC E. coli” value turned out to be 11.6 ± 2.9 µM and the “MIC E. coli (value in brackets)” value was determined as 5 µg/mL. Also, in data set [3], the “MIC P. aeruginosa” value is 14.6 ± 2.9 µM, the concentration giving a half-maximal response (EC50) worked out at 5 ± 0.5 µM and the “MIC P. aeruginosa (value in brackets)” value was 7 µg/mL. Further, in [4], the “MIC K. pneumoniae” value came out at 5.1 ± 1.9 µM, the EC50 was found to be 2 ± 0.2 µM and the “MIC K. pneumoniae (value in brackets)” value was 2 µg/mL. In data set [5], the “MIC A. baumannii” value came out at 8.7 ± 0.0 µM, the EC50 turned out to be 4.1 ± 0.4 µM and the “MIC A. baumannii (value in brackets)” value amounted to 4 µg/mL. Also, in [6], the “MIC MRSA” value was above 140 µM, the EC50 is above 140 µM and the “MIC MRSA (value in brackets)” value is above 64 µg/mL. Besides, in [7], the “MIC E. faecium” value was above 140 µM, the EC50 is above 140 µM and the “MIC E. faecium (value in brackets)” value was above 64 µg/mL. Further, the concentration for half-maximal inhibition (IC50) in the data set on Caco-2 cells is above 100 µM.
For the molecule `CCn1[c](=[Ag][I])n(Cc2ccccn2)c2ccccc21` [2c, Iodido (1-Ethyl-3-(pyridin-2-ylmethyl)-benzimidazol-2-ylidene) Silver(I)], the “Molar conductivity ΛM” value in data set [1] (1 h after dissolution) was 6.98 S cm^2 mol^–^1. The “Molar conductivity ΛM” value in data set [1] (24 h after dissolution) is reported as 6.28 S cm^2 mol^–^1. In [2], the response was half-maximal at 12.8 ± 1.1 µM (EC50), the “MIC E. coli” value was determined as 16.9 ± 0.0 µM and the “MIC E. coli (value in brackets)” value was 8 µg/mL. Moreover, in data set [3], the “MIC P. aeruginosa” value is 45.2 ± 11.3 µM, the EC50 stood at 14.2 ± 0.8 µM and the “MIC P. aeruginosa (value in brackets)” value came out at 21 µg/mL. Further, in [4], the “MIC K. pneumoniae” value stood at 11.3 ± 2.8 µM, the EC50 came out at 5.9 ± 1.7 µM and the “MIC K. pneumoniae (value in brackets)” value stood at 5 µg/mL. In addition, in data set [5], the “MIC A. baumannii” value turned out to be 8.5 ± 0.0 µM, the EC50 turned out to be 2.9 ± 0.5 µM and the “MIC A. baumannii (value in brackets)” value stood at 4 µg/mL. In data set [6], the “MIC MRSA” value was above 136 µM, the EC50 is above 136 µM and the “MIC MRSA (value in brackets)” value is above 64 µg/mL. Besides, in [7], the “MIC E. faecium” value is above 136 µM, the EC50 is above 136 µM and the “MIC E. faecium (value in brackets)” value was above 64 µg/mL. For the same molecule, the IC50 in the data set with Caco-2 cells was above 100 µM.
